Molecular target: T1, human SGLT2 (Homo sapiens, UniProt P31639)
T1 construct: expressed in transfected cells
T1 sequence (P31639 1-672): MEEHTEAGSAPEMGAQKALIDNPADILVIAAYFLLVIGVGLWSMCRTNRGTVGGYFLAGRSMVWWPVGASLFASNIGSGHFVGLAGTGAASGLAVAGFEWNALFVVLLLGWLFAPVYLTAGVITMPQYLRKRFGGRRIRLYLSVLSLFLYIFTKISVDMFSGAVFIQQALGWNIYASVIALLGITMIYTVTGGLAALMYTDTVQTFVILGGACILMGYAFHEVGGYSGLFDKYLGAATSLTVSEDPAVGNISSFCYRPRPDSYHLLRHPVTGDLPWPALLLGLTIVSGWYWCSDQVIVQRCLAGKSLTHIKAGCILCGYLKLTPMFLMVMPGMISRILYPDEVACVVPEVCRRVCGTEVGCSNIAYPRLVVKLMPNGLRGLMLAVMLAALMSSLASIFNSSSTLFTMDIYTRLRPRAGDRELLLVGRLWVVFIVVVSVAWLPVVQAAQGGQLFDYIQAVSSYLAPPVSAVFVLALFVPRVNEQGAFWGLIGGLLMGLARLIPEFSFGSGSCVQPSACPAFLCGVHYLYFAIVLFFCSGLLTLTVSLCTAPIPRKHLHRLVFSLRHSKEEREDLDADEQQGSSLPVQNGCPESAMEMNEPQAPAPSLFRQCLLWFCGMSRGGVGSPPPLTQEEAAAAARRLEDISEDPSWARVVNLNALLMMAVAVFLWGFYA
Assay: Assay for inhibitory effects on human SGLT2 activity (uptake of methyl-α-D-glucopyranoside in CS2-5E cells)
Type: cell-based
Settings: inhibition of 14C-labeled α-MG uptake (1 mM), CHO-K1 cells stably expressing human SGLT2 (CS2-5E), 37° C., 1 hour
Experimental: Assay for Inhibitory Effects on Human SGLT2 Activity 1) Cloning and Construction of the Vector Expressing Human SGLT2 The cDNA library was prepared for PCR amplification by reverse transcription from total RNA deprived from human kidney (Ori gene) using oligo-dT as a primer. Using this cDNA library as a template, the DNA fragment coding 2 to 2039 bp of human SGLT2 (ACCESSION: M95549, M95299), which was reported by R. G. Wells et al., was amplified by PCR method and inserted into the multi-cloning site of pcDNA3.1 (−) (Invitrogen). The DNA sequence inserted was perfectly matched to the previously reported sequence. 2) Establishment of Cell Line Stably Expressing Human SGLT2 The expression vector of human SGLT2 was digested by Sca I into a linear DNA. The linear DNA was transfected into CHO-K1 cells by means of lipofection (Effectene Transfection Reagent: QIAGEN). Neomycin resistant cell lines were selected by culture in the medium containing G418 (1 mg/mL, LIFE TECHNOLOGIES), and then the activity against the uptake of methyl-α-D-glucopyranoside was measured by the method described below. […] Radioactivity was measured by means of micro-scintillation counter TopCount (Packard). One hundred % was set to the difference between the uptake in the control group and the basal uptake, and the uptake of methyl α-D-glucopyranoside at each drug concentration were calculated. […]

COc1ccc(Cc2ccccc2O[C@@H]2O[C@H](CF)[C@@H](O)[C@H](O)[C@H]2O)cc1 [Example 1, 2-(4-Methoxybenzyl)phenyl 6-deoxy-6-fluoro-β-D-glucopyranoside]
IC50: 86 nM

Reference: patent publication US20070185197A1, “Phenol derivative, medicinal composition containing the same, and medicinal use thereof” (priority 2004, published 2007)
